In patent publication US12509482B2, “3′-ketoglycoside compound for the slow release of a volatile alcohol” (GLYCOSCIENCE, S.L., priority 2020, dated 2025):
Where a name gives a salt, the structure may show the parent alone. One block for each compound: values may come before it.

Tests used:
Assay type in all cases: physicochemical
[1] = Example 28: release of methanol from methyl-β-3′-ketoglucuronide methyl ester, 0.1 M deuterated phosphate buffer, 10% D6-DMSO, 32° C.
Protocol: In this example the rate of release of methanol from methyl (2R,3R,5S,6S)-3,5-dihydroxy-6-methoxy-4-oxotetrahydro-2H-pyran-2-carboxylate (methyl-β-3′-ketoglucuronide methyl ester) in D2O containing 10% D6-DMSO or in 0.1 M deuterated phosphate buffer solutions of differing pH containing 10% D6-DMSO or in D2O was determined.
(§1) 0.1 M of pH 5.8 and 7.4 stock buffered solutions of sodium dihydrogen phosphate and disodium hydrogen phosphate were prepared in deuterated water (D2O).
A stock solution of 20 mg of methyl-β-3′-ketoglucuronide methyl ester in 0.25 mL of D6-DMSO were prepared.
(§2) To two parallel reaction vials, where indicated in the reaction table below, was added 0.05 mL of the glycoside substrate solutions in D6-DMSO and 0.55 mL of low or high pH 0.1M phosphate buffer in D2O and the mixtures incubated by shaking at 32° C. After times indicated in table below, the mixtures where analysed by ^1H-NMR in a 400 MHz instrument.

[2] = Example 20: release of (S)-α-terpineol from (S)-α-terpineol-O-β-D-3′-ketoglucopyranoside, 0.1 M deuterated phosphate buffer, 33% D6-DMSO, 32° C.
Protocol: In this example the rate of release of (S)-α-terpineol from (2R,3R,5S)-3,5-dihydroxy-2-(hydroxymethyl)-6-((5-(2-hydroxypropan-2-yl)-2-methylcyclohexyl)oxy) tetrahydro-4H-pyran-4-one ((S)-α-terpineol-O-β-D-3′-ketoglucopyranoside) in 0.1 M deuterated phosphate buffer solutions of differing pH containing 33% D6-DMSO was determined.
as §1
A stock solution of 10 mg of (S)-α-terpineol-O-β-D-3′-ketoglucopyranoside in 0.5 mL of D6-DMSO were prepared.
as §2, with “0.20” for “0.05”, “0.40” for “0.55”

[3] = Example 22: competitive release of para-nitrophenol from an approximately equimolar solution of 4-nitrophenyl-O-β-D- and -O-α-D-3′-ketoglucopyranoside, 32° C., 1H NMR integrals
Source text: In this example the competitive rate of release of para-nitrophenol from an approximately equimolar solution of (2R,5S,6S)-3,5-dihydroxy-2-(hydroxymethyl)-6-(4-nitrophenoxy)tetrahydro-4H-pyran-4-one (4-nitrophenyl-O-β-D-3′-ketoglucopyranoside) and (2R,5S,6S)-3,5-dihydroxy-2-(hydroxymethyl)-6-(4-nitrophenoxy)tetrahydro-4H-pyran-4-one (4-nitrophenyl-O-α-D-3′-ketoglucopyranoside) in D2O containing 1.5% D6-DMSO or in 0.1 M deuterated phosphate buffer, pH 5.8 containing 1.5% D6-DMSO or in D2O was determined.
A solution containing approximately 2 mg each of 4-nitrophenyl-O-β-D-3′-ketoglucopyranoside and 4-nitrophenyl-O-α-D-3′-ketoglucopyranoside was prepared in 1 mL of D2O containing 3.3% v/v D6-DMSO. To two 0.375 mL portions of the resultant solution was added either D2O (0.5 mL) or 0.1M sodium phosphate buffer, pH 5.8 (0.5 mL) to given reactions 1 and 2 respectively. The resultant mixtures were analysed by ^1H NMR directly following preparation then incubated at 32° C./80 rpm and periodically analysed by ^1H NMR at recorded time points.
The change in the ratio between the integrals of the anomeric protons of each ketoglucoside and between the were sum of the anomeric protons and the anomeric protons of each ketoglucoside with time are shown in Table IX: […]

[4] = Example 13: release of 4-nitrophenol from substrate A (4-nitrophenyl-O-β-D-3′-ketoglucopyranoside) vs substrate B (4-nitrophenyl-O-β-D-glucopyranoside), 0.1 M deuterated phosphate buffer or water, 10% D6-DMSO, room temperature; settings: for composition by 1H-NMR (aromatic signals): approximately 26 h
Protocol: In this example, 4-nitrophenyl-O-β-D-3′-ketoglucopyranoside and 4-nitrophenyl-O-beta-D-glucopyranoside were used as model compounds to determine the rate of release of an aromatic alcohol (4-nitrophenol) under different conditions.
Rate of release of 4-nitrophenol from (2R,3R,5S,6S)-3,5-dihydroxy-2-(hydroxymethyl)-6-(4-nitrophenoxy)tetrahydro-4H-pyran-4-one (4-nitrophenyl-O-β-D-3′-ketoglucopyranoside) was determined in comparison to (2R,3S,4S,5R,6S)-2-(hydroxymethyl)-6-(4-nitrophenoxy)tetrahydro-2H-pyran-3,4,5-triol (para-nitrophenyl-O-β-D-glucopyranoside) in 0.1 M deuterated phosphate buffer solutions of differing pH containing 10% D6-DMSO or in water containing 10% D6-DMSO at room temperature.
1 M Stock solutions of sodium dihydrogen phosphate and disodium hydrogen phosphate were prepared in deuterated water (D2O). Stock solutions of 25 mg of 4-nitrophenyl-O-β-D-3′-ketoglucopyranoside (substrate A), 25 mg of 4-nitrophenyl-O-β-D-glucopyranoside (substrate B) in 0.5 mL of D6-DMSO were each prepared and a stock solution of 11 mg of 4-nitrophenol in the same volume of D6-DMSO for visual comparison.
Solutions of pH 4.5, 5.8, 7.4 and 9.5 were prepared by dilution of the appropriate individual or mixture of stock phosphate salt solutions to 0.1 M using a calibrated pH meter.
To ten parallel reaction vials was added 0.05 mL of one of the glycoside substrate stock solutions in D6-DMSO, 0.5 mL of the appropriate deuterated buffer solution or 0.5 mL of water were indicated in Table I below. The reaction vials were allowed to stand at room temperature and the colour of the solutions recorded by visual observation relative to the colour of authentic 4-nitrophenol solutions diluted in the same way, as shown in Table I:
After approximately 26 h, reactions 2 to 5 were all analysed by ^1H-NM R using 128 scans on a 400 MHz instrument.

[5] = Example 29: release of phenol from phenyl-O-β-D-3′-keto-6′-sulphatoglucopyranoside pyridinium salt, 0.1 M deuterated phosphate buffer, 15% D6-DMSO, 32° C.
Protocol: In this example the rate of release of phenol from ((2R,3R,5S,6S)-3,5-dihydroxy-4-oxo-6-phenoxytetrahydro-2H-pyran-2-yl)methyl hydrogen sulfate pyridinium salt (phenyl-O-β-D-3′-keto-6′-sulphatoglucopyranoside pyridinium salt) in 0.1 M deuterated phosphate buffer solutions of differing pH containing 15% D6-DMSO was determined.
as §1
A stock solution of 20 mg of phenyl-O-β-D-3′-keto-6′-sulphatoglucopyranoside in 0.5 mL of D6-DMSO were prepared.
as §2, with “0.10” for “0.05”, “0.60” for “0.55”

[6] = Example 15: release of carvacrol from carvacrol-O-β-D-3′-ketoglucopyranoside, 0.1 M deuterated phosphate buffer, 20% D6-DMSO, 32° C.
Protocol: In this example the rate of release of carvacrol from ((2R,3R,5S)-3,5-dihydroxy-2-(hydroxymethyl)-6-(5-isopropyl-2-methylphenoxy)tetrahydro-4H-pyran-4-one (carvacrol-O-β-D-3′-ketoglucopyranoside) in 0.1 M deuterated phosphate buffer solutions of differing pH containing 20% D6-DMSO was determined. 0.1 M of pH 5.8 and 7.4 stock buffered solutions of sodium dihydrogen phosphate and disodium hydrogen phosphate were prepared in deuterated water (D2O).
A stock solution of 15 mg of carvacrol-O-β-D-3′ketoglucopyranoside in 1.0 mL of D6-DMSO were prepared.
as §2, with “was added 0.20 mL of” for “was added 0.05 mL of”, “D6-DMSO and […] of” for “D6-DMSO and 0.55 mL of”, “buffer in D2O or D2O and” for “buffer in D2O and”

[7] = Description: alcohol release from model compounds (III), (IV) and compound (V) in buffer, water and skin washings; settings: 20 mg/mL mixture; after 3 d

Structure (SMILES): COC(=O)[C@H]1OC(OC)[C@H](O)C(=O)[C@@H]1O (stereo in doubt) [methyl-β-3′-ketoglucuronide methyl ester, methyl (2S,3R,5S,6S)-3,5-dihydroxy-6-methoxy-4-oxotetrahydro-2H-pyran-2-carboxylate]
methanol release (in words) ([1]; 32° C.): generates methanol at both pH 5.8 and pH 7.4
% Conversion by 1H-NMR ([1]; pH 5.8, 0 h): 0%
% Conversion by 1H-NMR ([1]; pH 5.8, 5 h): 2%
% Conversion by 1H-NMR ([1]; pH 5.8, 20 h): 7%
% Conversion by 1H-NMR ([1]; pH 5.8, 163 h (printed under the 72 h column)): 23%
% Conversion by 1H-NMR ([1]; pH 7.4, 0 h): 0%
% Conversion by 1H-NMR ([1]; pH 7.4, 5 h): 15%
% Conversion by 1H-NMR ([1]; pH 7.4, 20 h): 38%
% Conversion by 1H-NMR ([1]; pH 7.4, 72 h): 100%

Structure (SMILES): CC1=CC[C@@H](C(C)(C)O[C@@H]2O[C@H](CO)[C@@H](O)C(=O)[C@H]2O)CC1 [(2R,3R,5S,6S)-3,5-dihydroxy-2-(hydroxymethyl)-6-((2-((S)-4-methylcyclohex-3-en-1-yl)propan-2-yl)oxy)tetrahydro-4H-pyran-4-one]
pH dependence of (S)-α-terpineol release (in words) ([2]; 32° C.): only slowly degraded at pH 5.8, but releases (S)-α-terpineol at a significantly higher rate at pH 7.4
% Conversion by 1H-NMR ([2]; pH 5.8, 0 h): 0%
% Conversion by 1H-NMR ([2]; pH 5.8, 3 h): 0%
% Conversion by 1H-NMR ([2]; pH 5.8, 20 h): 0%
% Conversion by 1H-NMR ([2]; pH 5.8, 95 h): 0%
% Conversion by 1H-NMR ([2]; pH 7.4, 0 h): 0%
% Conversion by 1H-NMR ([2]; pH 7.4, 3 h): 5%
% Conversion by 1H-NMR ([2]; pH 7.4, 20 h): 28%
% Conversion by 1H-NMR ([2]; pH 7.4, 95 h): 77%
% Conversion by 1H-NMR ([2]; pH 7.4, column head 167): 85%

Structure (SMILES): O=C1[C@@H](O)[C@H](Oc2ccc([N+](=O)[O-])cc2)O[C@H](CO)[C@H]1O [(2R,5S,6S)-3,5-dihydroxy-2-(hydroxymethyl)-6-(4-nitrophenoxy)tetrahydro-4H-pyran-4-one]
ratio of the sum of aromatic/β-ketoglucoside proton integrals ([3]; Reaction 1, D2O, 0 h): 6.8
ratio of the sum of aromatic/β-ketoglucoside proton integrals ([3]; Reaction 1, D2O, 20 h): 8.3
ratio of the sum of aromatic/β-ketoglucoside proton integrals ([3]; Reaction 1, D2O, 45 h): 8.8
ratio of the sum of aromatic/β-ketoglucoside proton integrals ([3]; Reaction 1, D2O, 143 h): 8.3
ratio of the sum of aromatic/β-ketoglucoside proton integrals ([3]; Reaction 2, 0.1M sodium phosphate buffer, pH 5.8, 0 h): 6.6
ratio of the sum of aromatic/β-ketoglucoside proton integrals ([3]; Reaction 2, 0.1M sodium phosphate buffer, pH 5.8, 20 h): 7.2
ratio of the sum of aromatic/β-ketoglucoside proton integrals ([3]; Reaction 2, 0.1M sodium phosphate buffer, pH 5.8, 45 h): 9.7
ratio of the sum of aromatic/β-ketoglucoside proton integrals ([3]; Reaction 2, 0.1M sodium phosphate buffer, pH 5.8, 143 h): 10.6
composition by 1H-NMR (aromatic signals) ([4]; reaction 2, pH 4.5): only starting material
composition by 1H-NMR (aromatic signals) ([4]; reaction 3, pH 5.8): a mixture to starting material and 4-nitrophenol
composition by 1H-NMR (aromatic signals) ([4]; reaction 4, pH 7.4): almost entirely 4-nitrophenol with a trace of starting material
composition by 1H-NMR (aromatic signals) ([4]; reaction 5, pH 9.5): almost entirely 4-nitrophenol with a trace of starting material
4-nitrophenol release (in words) ([4]; varying solution pH, room temperature, 0.5 mL of aqueous solution): from no release at low pH to the delivery of μg quantities of 4-nitrophenol per minute

Structure (SMILES): CC(C)=CCC/C(C)=C/CO[C@@H]1O[C@H](CO)[C@@H](O)[C@H](O)[C@H]1O [geranyl-O-β-D-glucopyranoside]
aroma of geraniol on opening the stoppered reaction vessel [7]: not present

More lines, main results first:

phenol release (in words) ([5]; 32° C.): generates phenol at pH 7.4
% Conversion by 1H-NMR ([5]; Reaction 1, pH 5.8, 0 h): 1%
% Conversion by 1H-NMR ([5]; Reaction 1, pH 5.8, 5 h): 2%
% Conversion by 1H-NMR ([5]; Reaction 1, pH 5.8, 20 h): 2%
% Conversion by 1H-NMR ([5]; Reaction 1, pH 5.8, 100 h): 2%
% Conversion by 1H-NMR ([5]; Reaction 2 (0.60 mL of pH 5.8 buffer), 0 h): 4%
% Conversion by 1H-NMR ([5]; Reaction 2 (0.60 mL of pH 5.8 buffer), 5 h): 15%
% Conversion by 1H-NMR ([5]; Reaction 2 (0.60 mL of pH 5.8 buffer), 20 h): 38%
% Conversion by 1H-NMR ([5]; Reaction 2 (0.60 mL of pH 5.8 buffer), 100 h): 84%
Structure (SMILES): O=C1[C@@H](O)[C@H](Oc2ccccc2)O[C@H](COS(=O)(=O)O)[C@H]1O [((2R,3R,5S,6S)-3,5-dihydroxy-4-oxo-6-phenoxytetrahydro-2H-pyran-2-yl)methyl hydrogen sulfate pyridinium salt]

% Conversion by 1H-NMR ([6]; pH 5.8, 1 h): 2%
% Conversion by 1H-NMR ([6]; pH 5.8, 5 h): <5%
% Conversion by 1H-NMR ([6]; pH 5.8, 23 h): <5%
% Conversion by 1H-NMR ([6]; pH 5.8, 69 h): <5%
% Conversion by 1H-NMR ([6]; pH 7.4, 1 h): 8%
% Conversion by 1H-NMR ([6]; pH 7.4, 5 h): 14%
% Conversion by 1H-NMR ([6]; pH 7.4, 23 h): 83%
% Conversion by 1H-NMR ([6]; pH 7.4, 69 h): 100%
Structure (SMILES): Cc1ccc(C(C)C)cc1O[C@@H]1O[C@H](CO)[C@@H](O)C(=O)[C@H]1O [carvacrol-O-β-D-3′-ketoglucopyranoside, (2R,3R,5S,6S)-3,5-dihydroxy-2-(hydroxymethyl)-6-(5-isopropyl-2-methylphenoxy)tetrahydro-4H-pyran-4-one]
pH dependence of carvacrol release (in words) ([6]; 32° C.): only slowly degraded at pH 5.8, but releases carvacrol at a significantly higher rate at pH 7.4
